Laboratory results reported in patent EP4786465A1, “NOVEL COMPOUND, AND PHARMACEUTICAL COMPOSITION FOR PREVENTION OR TREATMENT OF CANCER OR TUMORS COMPRISING SAME” (Daewoong Pharmaceutical Co., Ltd., priority 2023, dated 2025).
Where two headings read alike, the source gives them in different places.

How the values were obtained:
Assay type in all cases: cell-based
NCI-H28 = assay: Cell growth inhibition test (CellTiter-Glo Luminescent Cell Viability), NCI-H28; settings: Homo sapiens
Protocol: (§1) The cell growth for the compounds prepared in Examples was measured by CellTiter-Glo® Luminescednt Cell Viability (Promega, Catalog #G7571) method using NCI-H226 (addexbio), NCI-H28 (Korea Cell Line Bank) cell lines. This evaluation method is a method in which when luciferase enzyme is activated by ATP flowing out from living cells, it reacts with a luciferin substrate, and the enzyme activity at this time is measured to confirm cell viability.
(§2) Specifically, NCI-H226, and NCI-H28 cells were prepared in 100 µL of cell culture medium (RPMI medium, 10% FBS, 1% P/S, 4.5 g/L D-Glucose, 2.383 g/L HEPES Buffer, L-Glutamine, 1.5 g/L Sodium Bicarbonate, 110 mg/L Sodium pyruvate) in a white clear bottom 96-well microplate. The prepared plate was incubated in a 5% CO2 incubator at 37°C for 24 hours, and then the previously prepared compounds of Examples were finally treated at concentrations of 0.0005, 0.005, 0.05, 0.5 and 5 µM, which was repeated three times for all treatment solutions. The plates treated with the compounds of Examples were incubated in a 5% CO2 incubator at 37°C. 100 µL/well of the substrate aqueous solution containing luciferin was added to a white clear-bottom 96 well microplate, thereby initiating an enzyme reaction. The reaction was performed at room temperature in the dark for 10 minutes, and the luminescence was measured using a Flexstation3 multi-mode microplate reader. In accordance with the instructions for the CellTiter-Glo™ Luminescednt Cell Viability, the luciferase enzyme activity, which represents the amount of ATP, was measured by a chemiluminescence method, and the inhibitory activity of the compounds according to the present disclosure was calculated. The results of each compound were analyzed using Microsoft Excel, and the IC50 values were calculated using GraphPad Prism software.

NCI-H226 = assay: Cell growth inhibition test (CellTiter-Glo Luminescent Cell Viability), NCI-H226; settings: Homo sapiens
Protocol: as §1, §2

[1] = test system: transcription factor TEAD; assay: Activity inhibition test of transcription factor TEAD (ONE-Glo Luciferase assay, Hippo Pathway TEAD reporter-MCF7 recombinant cell line); settings: Homo sapiens; TEAD Reporter-MCF7 cells, 24 hours treatment, luciferase luminescence
Protocol: The transcription factor TEAD activity of the compounds prepared in the Examples was measured by the ONE-Glo™ Luciferase assay (Promega, Catalog #E6110) method using the Hippo Pathway TEAD reporter-MCF7 recombinant cell line (BPS Bioscience, Catalog #60618). Specifically, the TEAD Reporter-MCF7 cell line contains the firefly luciferase gene whose expression is regulated under the control of TEAD response elements in the MCF7, which is a human breast cancer cell line. In the cell line, a non-phosphorylated YAP/TAZ exists in the nucleus in a non-stressed condition, which continuously induces expression of the luciferase reporter. TEAD Reporter-MCF7 cells were prepared in 100 µL of cell culture medium (MEM medium, 10% FBS, 1% P/S, 400 µg/mL Geneticin, 1% […], 1 mM NA pyruvate, 10 µg/mL Insulin) in a white clear bottom 96-well microplate. The prepared plate was incubated in a 5% CO2 incubator at 37°C for 24 hours, and then the previously prepared compounds of Examples were finally treated at concentrations of 0.0005, 0.005, 0.05, 0.5 and 5 µM, which were repeated three times for all treatment solutions. The plates treated with the compounds of Examples were incubated in a 5% CO2 incubator at 37°C for 24 hours. 100 µL/well of the substrate aqueous solution containing luciferin was added to a white clear-bottom 96 well microplate, thereby initiating an enzyme reaction. The reaction was performed at room temperature for 5 minutes, and the luminescence (integration time 1000 ms) was measured using a Flexstation3 multi-mode microplate reader. In accordance with the instructions for the ONE-Glo™ Luciferase Assay, the luciferase enzyme activity, which represents the activity of the transcription factor TEAD, was measured by a chemiluminescence method, and the inhibitory activity of the compound according to the present disclosure was calculated. The results of each compound were analyzed using Microsoft Excel, and the IC50 values were calculated by GraphPad Prism software.

[2] = NCI-H28 cells, CellTiter-Glo, read-out: growth IC50 H28
[3] = NCI-H226 cells, CellTiter-Glo, read-out: growth IC50 H226

C=CC(=O)N1Cc2cc(Nc3ccc(C(F)(F)F)cc3)c(-c3cn(C)cn3)cc2C1 [Example 1, 1-(5-(1-methyl-1H-imidazol4-yl)-6-((4-(trifluoromethyl)phenyl)amino)isoindolin-2-yl)prop-2-en-1-one]
IC50 (NCI-H28; [2]): 3 µM
IC50 (NCI-H226; [3]): 0.0212 µM
IC50 [1]: 0.0427 µM

CNS(=O)(=O)N1Cc2cc(Nc3ccc(C(F)(F)F)cc3)c(-c3cn(C)cn3)cc2C1 [Example 2, N-methyl-5-(1-methyl-1H-imidazol-4-yl)-6-((4-(trifluoromethyl)phenyl)amino)isoindoline-2-sulfonamide]
IC50 (NCI-H28; [2]): 5.2 µM
IC50 (NCI-H226; [3]): 0.0898 µM
IC50 [1]: 1.46 µM

C=CC(=O)N1CCc2c(ccc(Nc3ccc(C(F)(F)F)cc3)c2-c2cn(C)cn2)C1 [Example 3, 1-(5-(1-methyl-1H-imidazol-4-yl)-6-((4-(trifluoromethyl)phenyl)amino)-3,4-dihydroisoquinolin-2(1H)-yl)prop-2-en-1-one]
IC50 (NCI-H28; [2]): 0.951 µM
IC50 (NCI-H226; [3]): 0.0098 µM
IC50 [1]: 0.0255 µM

CNS(=O)(=O)N1CCc2c(ccc(Nc3ccc(C(F)(F)F)cc3)c2-c2cn(C)cn2)C1 [Example 4, N-methyl-5-(1-methyl-1H-imidazol-4-yl)-6-((4-(trifluoromethyl)phenyl)amino)-3,4-dihydroisoquinoline-2(1H)-sulfonamide]
IC50 (NCI-H28; [2]): 10 µM
IC50 (NCI-H226; [3]): 1.35 µM
IC50 [1]: 4.84 µM

C=CC(=O)N1Cc2ccc(Nc3ccc(C(F)(F)F)cc3)c(-c3cn(C)cn3)c2C1 [Example 5, 1-(4-(1-methyl-1H-imidazol-4-yl)-5-((4-(trifluoromethyl)phenyl)amino)isoindolin-2-yl)prop-2-en-1-one]
IC50 (NCI-H28; [2]): 2 µM
IC50 (NCI-H226; [3]): 0.119 µM
IC50 [1]: 0.602 µM

CNS(=O)(=O)N1Cc2ccc(Nc3ccc(C(F)(F)F)cc3)c(-c3cn(C)cn3)c2C1 [Example 6, N-methyl-4-(1-methyl-1H-imidazol-4-yl)-5-((4-(trifluoromethyl)phenyl)amino)isoindoline-2-sulfonamide]
IC50 (NCI-H28; [2]): 6.6 µM
IC50 (NCI-H226; [3]): 0.923 µM
IC50 [1]: 1.56 µM

C=CC(=O)N1CCc2c(ccc(Nc3ccc(C(F)(F)F)cc3)c2-c2cn3c(n2)CCC3)C1 [Example 7, 1-(5-(6,7-dihydro-5H-pyrrolo[1,2-a]imidazol-2-yl)-6-((4-(trifluoromethyl)phenyl)amino)-3,4-dihydroisoquinolin-2(1H)-yl)prop-2-en-1-one]
IC50 (NCI-H28; [2]): 2.18 µM
IC50 (NCI-H226; [3]): 0.0378 µM
IC50 [1]: 0.0143 µM

Cn1cnc(-c2cc3c(cc2Nc2ccc(C(F)(F)F)cc2)CN(CC#N)C3)c1 [Example 8, 2-(5-(1-methyl-1H-imidazol-4-yl)-6-((4-(trifluoromethyl)phenyl)amino)isoindolin-2-yl)acetonitrile]
IC50 (NCI-H28; NCI-H28, read-out: growth IC50 H28): 10 µM
IC50 (NCI-H226; NCI-H226, read-out: growth IC50 H226): 1.53 µM
IC50 [1]: 9.35 µM

C=CC(=O)N1CCc2c(ccc(Nc3ccc(C(F)(F)F)c(F)c3)c2-c2cn(C)cn2)C1 [Example 9, 1-(6-((3-fluoro-4-(trifluoromethyl)phenyl)amino)-5-(1-methyl-1H-imidazol-4-yl)-3,4-dihydroisoquinolin-2(1H)-yl)prop-2-en-1-one]
IC50 (NCI-H28; [2]): 0.778 µM
IC50 (NCI-H226; [3]): 0.036 µM
IC50 [1]: 0.0342 µM

C=CC(=O)N1CCc2c(ccc(Nc3ccc(F)cc3)c2-c2cn(C)cn2)C1 [Example 10, 1-(6-((4-fluorophenyl)amino)-5-(1-methyl-1H-imidazol-4-yl)-3,4-dihydroisoquinolin-2(1H)-yl)prop-2-en-1-one]
IC50 (NCI-H28; [2]): 1.5 µM
IC50 (NCI-H226; [3]): 0.1 µM
IC50 [1]: 0.0496 µM

C=CC(=O)N1Cc2cc(Nc3ccc(F)cc3)c(-c3cn(C)cn3)cc2C1 [Example 11, 1-(5-((4-fluorophenyl)amino)-6-(1-methyl-1H-imidazol-4-yl)isoindolin-2-yl)prop-2-en-1-one]
IC50 [1]: 1.89 µM

C=CC(=O)N1CCc2ccc(Nc3ccc(F)cc3)c(-c3cn(C)cn3)c2C1 [Example 12, 1-(7-((4-fluorophenyl)amino)-8-(1-methyl-1H-imidazol-4-yl)-3,4-dihydroisoquinolin-2(1H)-yl)prop-2-en-1-one]
IC50 [1]: > 10 µM

C=CC(=O)N1CCc2c(ccc(Nc3cc(F)cc(F)c3)c2-c2cn(C)cn2)C1 [Example 13, 1-(6-((3,5-difluorophenyl)amino)-5-(1-methyl-1H-imidazol-4-yl)-3,4-dihydroisoquinolin-2(1H)-yl)prop-2-en-1-one]
IC50 (NCI-H28; [2]): 2 µM
IC50 (NCI-H226; [3]): 0.0553 µM
IC50 [1]: 0.028 µM

C=CC(=O)N1CCc2c(ccc(Nc3cc(F)c(F)c(F)c3)c2-c2cn(C)cn2)C1 [Example 14, 1-(5-(1-methyl-1H-imidazol-4-yl)-6-((3,4,5-trifluorophenyl)amino)-3,4-dihydroisoquinolin-2(1H)-yl)prop-2-en-1-one]
IC50 (NCI-H28; [2]): 1.8 µM
IC50 (NCI-H226; [3]): 0.0166 µM
IC50 [1]: 0.00678 µM

C=CC(=O)N1CCc2c(ccc(Nc3ccc(Cl)cc3)c2-c2cn(C)cn2)C1 [Example 15, 1-(6-((4-chlorophenyl)amino)-5-(1-methyl-1H-imidazol-4-yl)-3,4-dihydroisoquinolin-2(1H)-yl)prop-2-en-1-one]
IC50 (NCI-H28; [2]): 2.4 µM
IC50 (NCI-H226; [3]): 0.0309 µM
IC50 [1]: 0.0059 µM

C=CC(=O)N1CCc2c(ccc(Nc3ccc(Br)cc3)c2-c2cn(C)cn2)C1 [Example 16, 1-(6-((4-bromophenyl)amino)-5-(1-methyl-1H-imidazol-4-yl)-3,4-dihydroisoquinolin-2(1H)-yl)prop-2-en-1-one]
IC50 (NCI-H28; [2]): 0.636 µM
IC50 (NCI-H226; [3]): 0.0352 µM
IC50 [1]: 0.0081 µM

C=CC(=O)N1CCc2c(ccc(Nc3cc(F)c(C(F)(F)F)c(F)c3)c2-c2cn(C)cn2)C1 [Example 17, 1-(6-((3,5-difluoro-4-(trifluoromethyl)phenyl)amino)-5-(1-methyl-1H-imidazol-4-yl)-3,4-dihydroisoquinolin-2(1H)-yl)prop-2-en-1-one]
IC50 (NCI-H28; [2]): 3.3 µM
IC50 (NCI-H226; [3]): 0.0096 µM
IC50 [1]: 0.0086 µM

C=CC(=O)N1Cc2cc(Nc3cc(F)c(F)c(F)c3)c(-c3cn(C)cn3)cc2C1 [Example 18, 1-(5-(1-methyl-1H-imidazol-4-yl)-6-((3,4,5-trifluorophenyl)amino)isoindolin-2-yl)prop-2-en-1-one]
IC50 [1]: 0.239 µM

C=CC(=O)N1Cc2cc(Nc3ccc(Cl)cc3)c(-c3cn(C)cn3)cc2C1 [Example 19, 1-(5-((4-chlorophenyl)amino)-6-(1-methyl-1H-imidazol-4-yl)isoindolin-2-yl)prop-2-en-1-one]
IC50 [1]: 0.118 µM

C=CC(=O)N1CCc2c(ccc(Nc3cccc(C(F)(F)F)c3)c2-c2cn(C)cn2)C1 [Example 20, 1-(5-(1-methyl-1H-imidazol-4-yl)-6-((3-(trifluoromethyl)phenyl)amino)-3,4-dihydroisoquinolin-2(1H)-yl)prop-2-en-1-one]
IC50 (NCI-H28; [2]): 1.12 µM
IC50 (NCI-H226; [3]): 0.139 µM
IC50 [1]: 0.045 µM

C=CC(=O)N1CCc2c(ccc(Nc3cc(Cl)cc(C(F)(F)F)c3)c2-c2cn(C)cn2)C1 [Example 22, 1-(6-((3-chloro-5-(trifluoromethyl)phenyl)amino)-5-(1-methyl-1H-imidazol-4-yl)-3,4-dihydroisoquinolin-2(1H)-yl)prop-2-en-1-one]
IC50 [1]: 0.242 µM

C=CC(=O)N1CCc2c(ccc(Nc3cc(C(F)(F)F)cc(C(F)(F)F)c3)c2-c2cn(C)cn2)C1 [Example 23, 1-(6-((3,5-bis(trifluoromethyl)phenyl)amino)-5-(1-methyl-1H-imidazol-4-yl)-3,4-dihydroisoquinolin-2(1H)-yl)prop-2-en-1-one]
IC50 [1]: > 5 µM
